Experiments:
JAK1 = molecular target: T1, JAK1 (Homo sapiens, UniProt P23458); experiment: Test for in vitro activity of JAK1 kinase (LANCE Ultra ULight peptide); format: biochemical; conditions: recombinant human JAK1, 38 uM ATP, 90 min
T1 construct: purchased Life technology
Procedure: (§1) Test for in vitro activity of Jak1, Jak2, and Jak3 Kinase
(§2) Recombinant human […] of JAK1, JAK2 and JAK3 were purchased from Life technology. LANCE Ultra ULight™-JAK-1 (Tyr1023) peptide and LANCE Eu-W1024 Anti-phosphotyrosine (PT66) were purchased from PerkinElmer. Multimode ELISA, Envison(PerkinElmer) reader was used.
(§3) The test compound was diluted according to gradient of three times concentration with a final concentration of from 10 uM to 0.17 nM at 11 concentrations totally, each concentration with two complex holes, and the content of DMSO in the detection was 1%.
(§4) 2 nM of JAK1 Protein kinase, 50 nM of LANCE Ultra ULight™-JAK-1(Tyr1023) peptide, 38 uM of ATP, 50 mM of HEPES (pH 7.5), 10 mM of MgCl2, 1 mM of EGTA, 2 mM of DTT, 0.01% BRIJ-35. Checker board is White Proxiplate 384-Plus plate (PerkinElmer). The reaction was carried out at room temperature for 90 min and the reaction system was 10 ul.
(§5) 10 ul detection reagent was added to reaction plate, wherein the final concentration of LANCE Eu-W1024 Anti-phosphotyrosine (PT66) was 2 nM, the final concentration of EDTA was […], incubated at room temperature for 60 min, with Envison reader.
(§6) The reading was converted to inhibition ratio (%) by the following formula: the inhibition ratio (%)=([…])/(Max−Min)×100%.

JAK2 = molecular target: T2, JAK2 (Homo sapiens, UniProt O60674); experiment: Test for in vitro activity of JAK2 kinase (LANCE Ultra ULight peptide); format: biochemical; conditions: recombinant human JAK2, 12 uM ATP, 60 min
T2 construct: purchased Life technology
Procedure: as §1, §2, §3
as §4, with “0.02 nM” for “2 nM”, “of JAK2” for “of JAK1”, “peptide, 12” for “peptide, 38”, “for 60” for “for 90”
as §5, §6

[1] = Pharmacokinetic (PK) test in mice; format: in vivo, DBA/1 mice; conditions: for bioavailability / AUC(0-inf) / Cmax / half-life: mouse, plasma, po, DBA/1 mice, mean; for bioavailability: gavage vs tail vein injection; for AUC(0-inf) / Cmax / half-life: tail vein injection and gavage
Procedure: Pharmacokinetic (PK) Test
The clear solution obtained by dissolving the test compound was respectively administrated by tail vein injection and gavage into the mice DBA/1 mice (overnight fasting, 7 to 8 weeks old). After administration of the test compound, the mice in the vein injection group at 0.083, 0.25, 0.5, 1, 2, 4, 8 and 24 hours, and gavage group at 0.25, 0.5, 1, 2, 4, 8 and 24 hours, blood is collected from the mandibular vein and centrifuged to obtain plasma. The plasma concentration was determined by LC-MS/MS. The pharmacokinetic parameters were calculated by non-compartmental model linear logarithmic trapezoid method with using WinNonlin™ Version 6.3 pharmacokinetic software.

[2] = test system: rat adjuvant arthritis model; experiment: Rat adjuvant-induced arthritis model efficacy test; format: in vivo; conditions: Lewis rats, oral; for AUC (%): two weeks of administration from day 13; for arthritis inhibitory activity (in words): swollen foot volume and score
Procedure: Rat Adjuvant-Induced Arthritis Model Efficacy Test
The effect of the compounds of the present invention on the treatment of arthritis was verified by rat adjuvant arthritis models.
Female, Lewis rats with body weight 160-180 g were anesthetized with isoflurane and was injected with 0.1 ml of mycobacterium tuberculosis suspension subcutaneously in the left posterior foot. After modeling for 13 days, the corresponding test compound was administrated, such as that the rats were respectively administrated with 1 mpk, 3 mpk, 10 mpk of the test compound WX614, 10 mpk of the test compound WX552, and 10 mpk of the test compound WX591 dissolved in a mixed solvent of DMSO/PEG400/H2O, and orally administered to female Lewis rats (10 rats in each dose group). Two weeks after continuous administration, the state of the rats was observed and the volume of the swollen foot was recorded and scored.

[3] = test system: mouse collagen-induced arthritis model; experiment: Mouse collagen-induced arthritis model efficacy test; format: in vivo, DBA/1 male mice; conditions: CIA mice, oral, 2 weeks
Procedure: Mouse Collagen-Induced Arthritis Model Efficacy Test
The effect of the compounds of the present invention on the treatment of arthritis was verified by the mouse collagen-induced arthritis model.
The DBA/l male mice were selected and injected subcutaneously with the emulsions of collagen and Freund's complete adjuvant at base of tail on day 0 and day 21, and on day 29 the mice was divided into groups. The compound WX6144 (3 mpk, 10 mpk, 30 mpk) was dissolved in DMSO/PEG400/H2O [5/20/75 (v/v/v)] and administered orally to CIA mice (Shanghai SLAC Laboratory Animal Co., Ltd, 10 mice in each dose group), and the mice were continuously administrated for 2 weeks, the weight of mice were recorded and the arthritis of mice was clinically scored.

T2 sequence (O60674 whole entry): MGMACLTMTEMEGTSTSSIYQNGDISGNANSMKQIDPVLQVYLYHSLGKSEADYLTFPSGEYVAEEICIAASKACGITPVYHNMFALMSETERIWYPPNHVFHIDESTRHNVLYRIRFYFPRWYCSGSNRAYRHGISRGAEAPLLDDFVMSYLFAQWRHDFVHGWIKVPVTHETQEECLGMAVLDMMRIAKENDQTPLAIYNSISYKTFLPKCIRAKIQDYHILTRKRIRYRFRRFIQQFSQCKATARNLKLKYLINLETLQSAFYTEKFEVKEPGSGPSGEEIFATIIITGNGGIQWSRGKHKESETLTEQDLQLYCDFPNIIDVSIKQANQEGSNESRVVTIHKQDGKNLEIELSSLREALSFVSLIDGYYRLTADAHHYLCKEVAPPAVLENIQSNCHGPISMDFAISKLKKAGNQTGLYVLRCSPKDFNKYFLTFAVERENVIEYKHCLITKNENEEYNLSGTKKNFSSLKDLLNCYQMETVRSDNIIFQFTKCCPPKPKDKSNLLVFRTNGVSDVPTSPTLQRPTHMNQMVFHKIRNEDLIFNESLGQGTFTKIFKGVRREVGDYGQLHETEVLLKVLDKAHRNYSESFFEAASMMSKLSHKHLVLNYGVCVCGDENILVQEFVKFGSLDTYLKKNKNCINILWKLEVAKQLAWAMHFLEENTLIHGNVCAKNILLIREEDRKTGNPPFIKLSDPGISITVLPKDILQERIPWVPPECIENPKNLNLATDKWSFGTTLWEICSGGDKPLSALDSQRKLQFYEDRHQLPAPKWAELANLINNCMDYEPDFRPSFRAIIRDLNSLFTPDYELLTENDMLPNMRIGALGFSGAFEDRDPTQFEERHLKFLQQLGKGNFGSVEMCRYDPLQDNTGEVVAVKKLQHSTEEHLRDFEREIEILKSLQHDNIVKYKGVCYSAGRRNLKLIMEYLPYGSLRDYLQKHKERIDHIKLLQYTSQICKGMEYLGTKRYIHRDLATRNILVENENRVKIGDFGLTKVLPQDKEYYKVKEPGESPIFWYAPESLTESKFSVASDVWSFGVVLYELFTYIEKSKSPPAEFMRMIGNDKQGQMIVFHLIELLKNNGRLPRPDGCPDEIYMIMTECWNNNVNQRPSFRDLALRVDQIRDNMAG
T1 sequence (P23458 whole entry): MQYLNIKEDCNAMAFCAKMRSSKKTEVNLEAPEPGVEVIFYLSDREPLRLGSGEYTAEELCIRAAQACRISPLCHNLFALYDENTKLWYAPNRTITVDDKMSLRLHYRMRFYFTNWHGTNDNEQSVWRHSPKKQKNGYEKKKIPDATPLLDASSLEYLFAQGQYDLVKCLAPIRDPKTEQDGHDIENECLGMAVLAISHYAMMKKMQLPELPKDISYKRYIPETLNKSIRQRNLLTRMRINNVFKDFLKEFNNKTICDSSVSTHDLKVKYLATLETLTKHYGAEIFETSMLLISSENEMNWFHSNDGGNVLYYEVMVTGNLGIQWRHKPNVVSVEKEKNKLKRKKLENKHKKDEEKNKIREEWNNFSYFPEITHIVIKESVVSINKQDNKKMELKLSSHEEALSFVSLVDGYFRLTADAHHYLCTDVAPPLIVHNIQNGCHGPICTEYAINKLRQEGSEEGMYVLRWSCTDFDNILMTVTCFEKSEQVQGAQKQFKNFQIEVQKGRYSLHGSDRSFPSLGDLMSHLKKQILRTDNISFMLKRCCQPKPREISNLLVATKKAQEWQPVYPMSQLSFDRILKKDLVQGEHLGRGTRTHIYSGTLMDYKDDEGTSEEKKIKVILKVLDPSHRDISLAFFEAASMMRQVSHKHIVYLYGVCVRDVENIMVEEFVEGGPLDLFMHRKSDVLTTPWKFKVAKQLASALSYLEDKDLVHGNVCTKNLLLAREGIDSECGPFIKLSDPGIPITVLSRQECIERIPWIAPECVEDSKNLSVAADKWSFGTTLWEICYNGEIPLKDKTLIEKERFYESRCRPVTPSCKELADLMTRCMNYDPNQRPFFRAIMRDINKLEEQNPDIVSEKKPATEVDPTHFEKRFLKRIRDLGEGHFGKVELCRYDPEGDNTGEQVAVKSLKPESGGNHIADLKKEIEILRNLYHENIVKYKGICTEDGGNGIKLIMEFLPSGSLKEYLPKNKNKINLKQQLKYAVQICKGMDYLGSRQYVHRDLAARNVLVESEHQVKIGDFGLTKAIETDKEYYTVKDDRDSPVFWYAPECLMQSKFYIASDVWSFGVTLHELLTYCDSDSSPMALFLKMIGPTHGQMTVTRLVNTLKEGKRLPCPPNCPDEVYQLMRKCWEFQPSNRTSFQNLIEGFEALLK

| IC50 (JAK1) | IC50 (JAK2) | SMILES | further results |
| --- | --- | --- | --- |
| 10 to 100 nM | 100 to 1000 nM | CN(c1ncnc2[nH]ccc12)C1CCn2cc(CC#N)nc2C1 (racemic) [WX552, 2-[7-[methyl(7H-pyrrolo[2,3-d]pyrimidine-4-yl)amino]-5,6,7,8-tetrahydroimidazo[1,2-a]pyridine-2-yl]acetonitrile] | oral bioavailability and exposure in mice (in words) [1]: good oral bioavailability and higher exposure; bioavailability [1]: 74.4%; AUC(0-inf) [1]: 11.4 µM·h; Cmax [1]: 3.72 µM; half-life [1]: 1.18 h; AUC (%) ([2]; 10 mg/kg): 31.7%; arthritis inhibitory activity (in words) [2]: good arthritis inhibitory activity |
| 10 to 100 nM | 100 to 1000 nM | CN(c1ncnc2[nH]ccc12)C1CCn2cc(C#N)nc2C1 (racemic) [WX591, 7-[methyl-[7 hydropyrrolo[2,3-d]pyrimidine-4-yl]amino]-5,6,7,8-tetrahydroimidazo [1,2-a]pyridine-2-nitrile] | oral bioavailability and exposure in mice (in words) [1]: good oral bioavailability and higher exposure; bioavailability [1]: 87%; AUC(0-inf) [1]: 10.5 µM·h; Cmax [1]: 3.02 µM; half-life [1]: 2.26 h; AUC (%) ([2]; 10 mg/kg): 44.7%; arthritis inhibitory activity (in words) [2]: good arthritis inhibitory activity |
| > 1000 nM | > 1000 nM | CN(c1ncnc2[nH]ccc12)C1CCn2cc(CC#N)nc2C1 (single isomer, unassigned) [WX612, (S or R) 2-[7-[methyl(7H-pyrrolo[2,3-d]pyrimidine-4-yl)amino]-5,6,7,8-tetrahydroimidazo[1,2-a]pyridine-2-yl]acetonitrile] | – |
| 10 to 100 nM | 100 to 1000 nM | CN(c1ncnc2[nH]ccc12)C1CCn2cc(CC#N)nc2C1 (single isomer, unassigned) [WX613, (R or S)2-[7-[methyl(7H-pyrrolo[2,3-d]pyrimidine-4-yl)amino]-5,6,7,8-tetrahydroimidazo [1,2-a]pyridine-2-yl]acetonitrile] | – |
| ≤ 10 nM | 10 to 100 nM | CN(c1ncnc2[nH]ccc12)[C@H]1CCn2cc(C#N)nc2C1 (single isomer, unassigned) [WX614, (S or R) 7-[methyl-[7 hydropyrrolo[2,3-d]pyrimidine-4-yl]amino]-5,6,7,8-tetrahydroimidazo[1,2-a]pyridine-2-nitrile] | oral bioavailability and exposure in mice (in words) [1]: good oral bioavailability and higher exposure; bioavailability [1]: 73.9%; AUC(0-inf) [1]: 10.2 µM·h; Cmax [1]: 3.09 µM; half-life [1]: 1.76 h; AUC (%) ([2]; 1 mg/kg): 20.2%; AUC (%) ([2]; 3 mg/kg): 50.2%; AUC (%) ([2]; 10 mg/kg): 61.8%; arthritis inhibitory activity (in words) [2]: good arthritis inhibitory activity; AUC (%) ([3]; 3 mg/kg): 42.4%; AUC (%) ([3]; 10 mg/kg): 51.3%; AUC (%) ([3]; 30 mg/kg): 82.5%; therapeutic effect on mouse rheumatoid arthritis (in words) ([3]; clinical score): significant therapeutic effect |
| > 1000 nM | > 1000 nM | CN(c1ncnc2[nH]ccc12)[C@@H]1CCn2cc(C#N)nc2C1 (single isomer, unassigned) [WX615, (R or S) 7-[methyl-[7 hydropyrrolo[2,3-d]pyrimidine-4-yl]amino]-5,6,7,8-tetrahydroimidazo [1,2-a]pyridine-2-nitrile] | – |
| 100 to 1000 nM | > 1000 nM | CCOC(=O)c1cn2c(n1)CC(N(C)c1ncnc3[nH]ccc13)CC2 (centres unmarked) [WX550, ethyl 7-[methyl(7H-pyrrolo[2,3-d]pyrimidine-4-yl)amino]-5,6,7,8-tetrahydroimidazo[1,2-a]pyridine-2-carboxylate] | – |
| 100 to 1000 nM | > 1000 nM | CN(c1ncnc2[nH]ccc12)C1CCn2cc(CO)nc2C1 (centres unmarked) [WX551] | – |
| 100 to 1000 nM | > 1000 nM | CN(c1ncnc2[nH]ccc12)C1CCn2cc(C(=O)NCC(F)(F)F)nc2C1 (centres unmarked) [WX579] | – |
| 100 to 1000 nM | > 1000 nM | CN(c1ncnc2[nH]ccc12)C1CCn2cc(C(=O)NCC(F)F)nc2C1 (centres unmarked) [WX580] | – |
| 100 to 1000 nM | > 1000 nM | CN(c1ncnc2[nH]ccc12)C1CCn2cc(C(=O)NCC#N)nc2C1 (centres unmarked) [WX581] | – |
| > 1000 nM | > 1000 nM | CN(c1ncnc2[nH]ccc12)C1CCn2cc(C(=O)NCCS(C)(=O)=O)nc2C1 (centres unmarked) [WX592] | – |
| > 1000 nM | > 1000 nM | CN(c1ncnc2[nH]ccc12)C1CCn2cc(C(=O)NC3CC(F)(F)C3)nc2C1 (centres unmarked) [WX593, N-(3,3-difluorocyclobutyl)-7-[methyl(7H-pyrrolo[2,3-d]pyrimidine-4-yl]amino]-5,6,7,8-tetrahydroimidazo [1,2-a]pyridine-2-carboxamide] | – |
| 100 to 1000 nM | > 1000 nM | CNC(=O)c1cn2c(n1)CC(N(C)c1ncnc3[nH]ccc13)CC2 (centres unmarked) [WX604] | – |
| > 1000 nM | > 1000 nM | CNCc1cn2c(n1)CC(N(C)c1ncnc3[nH]ccc13)CC2 (centres unmarked) [WX605, N-methyl-N-[2-(methylaminomethyl)-5,6,7,8-tetrahydroimidazo[1,2-a]pyridine-7-yl]-7H-7H-pyrrolo[2,3-d]pyrimidine-4-amine] | – |
| 100 to 1000 nM | > 1000 nM | CN(c1ncnc2[nH]ccc12)C1CCn2cc(CNS(C)(=O)=O)nc2C1 (centres unmarked) [WX606, N-((7-(methyl-(7H-pyrrolo[2,3-d]pyrimidine-4-yl)amine)-5,6,7,8-tetrahydroimidazo[1,2-a]pyridine-2-yl)methyl)methanesulfonamide] | – |
